Measured values taken from patent US8883199B2, “Administration regime for N-hydroxy-4-{2-[3-(N,N-dimethylaminomethyl)benzofuran-2-ylcarbonylamino]ethoxy}benzamide” (priority 2011, dated 2014).

Legend:
[1] = system: patients with solid tumours; experiment: Clinical Study 1: toxicity and efficacy in monotherapy, two p.o. administration regimes
Description: A clinical study was set up to test the toxicity and efficacy of N-hydroxy-4-{2-[3-(N,N-dimethylaminomethyl)benzofuran-2-ylcarbonylamino]ethoxy}benzamide hydrochloride. 36 patients with solid tumours were included and treated in this study. A first administration regime was tested over a cycle of three weeks, with 14 consecutive days of 2 p.o. administrations 4 hours apart, followed by a week without treatment. Four dosage levels were successively tested from 30 to 75 mg/m^2 (expressed as a salt) twice daily. The acceptability of the various N-hydroxy-4-{2-[3-(N,N-dimethylaminomethyl)-benzofuran-2-ylcarbonylamino]ethoxy}benzamide dose levels were evaluated (especially, haematological toxicities) at the end of the first cycle.
This cycle can be repeated as many times as necessary for treatment of the cancer.

[2] = system: histone deacetylase (HDAC); settings: cited from earlier work
cultured tumour cells = cultured tumour cells in vitro; cited from earlier work
xenograft models = settings: in vivo; cited from earlier work

## CN(C)Cc1c(C(=O)NCCOc2ccc(C(=O)NO)cc2)oc2ccccc12 [N-hydroxy-4-{2-[3-(N,N-dimethylaminomethyl)benzofuran-2-ylcarbonylamino]ethoxy}benzamide]
[1]; first regime: 14 consecutive days of 2 p.o. administrations 4 hours apart, then a week without treatment, hydrochloride, dose expressed as a salt, 36 patients with solid tumours
  maximum tolerated dose: 75 mg/m^2 twice daily
[1]; human, in vivo
  platelet toxicity, second regime compared with first regime: less platelet toxicity than the previous regime
  reversibility of thrombopenias: reversible
[1]; human, in vivo, 3 weeks
  toxicities which limited increasing the dose: grade 4 thrombopenias
[1]; human, in vivo, po, 3 weeks
  recommended dose: 90 mg/m^2 twice daily
[1]; second regime: 4 consecutive days of 2 p.o. administrations 4 hours apart, then 3 days without treatment, each of the 3 weeks of a cycle
  maximum tolerated dose: 105 mg/m^2 twice daily
[2]
  histone deacetylase (HDAC) inhibition: powerful
Cultured tumour cells
  apoptosis: induces apoptosis
  cell growth: inhibition of cell growth
Xenograft models
  tumour growth: inhibits tumour growth
